Among the data in ChEMBL document CHEMBL5634182, “Antifungal Pseuboyenes A-J, Bergamotene-Derived Sesquiterpenoids from a Cold-Seep-Derived Pseudallescheria boydii” (J Nat Prod, 2024) are MIC values, retold here.

Structures are written as SMILES.

What all share (format): functional
Assay [1] concerns Colletotrichum gloeosporioides. Description: Antifungal activity against Colletotrichum gloeosporioides QDAU-2 assessed as reduction in microbial growth by broth microdilution method.
Assay [2] deals with Penicillium digitatum. Briefly: Antifungal activity against Penicillium digitatum QDAU-14 assessed as reduction in microbial growth by broth microdilution method.
The test system of assay [3] is Edwardsiella tarda. Description: Antibacterial activity against Edwardsiella tarda QDIO-2 assessed as reduction in microbial growth by broth microdilution method.
Assay [4] has as its system Vibrio harveyi. Description: Antibacterial activity against Vibrio harveyi QDIO-7 assessed as reduction in microbial growth by broth microdilution method.
The test system of assay [5] is Botryosphaeria berengeriana. Briefly: Antifungal activity against Physalospora piricola QDAU-15 assessed as reduction in microbial growth by broth microdilution method.
The test system of assay [6] is Micrococcus luteus. Description: Antibacterial activity against Micrococcus luteus QDIO-3 assessed as reduction in microbial growth by broth microdilution method.
For assay [7], the system named is Fusarium graminearum. Description: Antifungal activity against Fusarium graminearum QDAU-4 assessed as reduction in microbial growth by broth microdilution method.
In assay [8] the test system is Ceratobasidium cornigerum. Description: Antifungal activity against Ceratobasidium cornigerum QDAU-6 assessed as reduction in microbial growth by broth microdilution method.
In assay [9] the test system is Vibrio anguillarum. Briefly: Antibacterial activity against Vibrio anguillarum QDIO-6 assessed as reduction in microbial growth by broth microdilution method.
Assay [10] concerns Vibrio vulnificus. Description: Antibacterial activity against Vibrio vulnificus QDIO-10 assessed as reduction in microbial growth by broth microdilution method.
Assay [11] has as its system Colletotrichum gloeosporioides. Briefly: Antifungal activity against Colletotrichum gloeosporioides QDAU-17 assessed as reduction in microbial growth by broth microdilution method.
Assay [12] has as its system Fusarium oxysporum. Briefly: Antifungal activity against Fusarium oxysporum QDAU-8 assessed as reduction in microbial growth by broth microdilution method.
Assay [13] relates to Fusarium proliferatum. Description: Antifungal activity against Fusarium proliferatum QDAU-19 assessed as reduction in microbial growth by broth microdilution method.
In assay [14] the test system is Pseudomonas aeruginosa. Description: Antibacterial activity against Pseudomonas aeruginosa QDIO-4 assessed as reduction in microbial growth by broth microdilution method.
The test system of assay [15] is Curvularia spicifera. Description: Antifungal activity against Curvularia spicifera QDAU-18 assessed as reduction in microbial growth by broth microdilution method.
Assay [16] relates to Coniella diplodiella. Briefly: Antifungal activity against Coniothyrium diplodiella QDAU-7 assessed as reduction in microbial growth by broth microdilution method.
Assay [17] has as its system Alternaria brassicae. Description: Antifungal activity against Alternaria brassicae QDAU-16 assessed as reduction in microbial growth by broth microdilution method.
Assay [18] concerns Escherichia coli. Briefly: Antibacterial activity against Escherichia coli EMBLC-1 assessed as reduction in microbial growth by broth microdilution method.

With `C=C1CC[C@@]2(C[C@@H](O)C(=O)OC)C[C@@H]1[C@](C)([C@H](O)CC=C(C)C)O2`, the MIC in assay [1] was 4 µg/mL; in assay [2], 8 µg/mL; in assay [3], greater than 64 µg/mL; in assay [4] it was greater than 64 µg/mL; in [5] it was 64 µg/mL; in assay [6], greater than 64 µg/mL. Besides, the minimal inhibitory concentration (MIC) worked out at 4 µg/mL in assay [7]; 64 µg/mL in [8]; 16 µg/mL in assay [9]; 64 µg/mL in assay [10]; 64 µg/mL in [11]; 16 µg/mL in assay [12]. Moreover, the minimum inhibitory concentration (MIC) was 4 µg/mL in assay [13]; greater than 64 µg/mL in assay [14]; 4 µg/mL in assay [15]; 4 µg/mL in [16]; 8 µg/mL in [17]; greater than 64 µg/mL in assay [18].

For `C=C1[C@H](O)C[C@H]2C[C@@H]1[C@](C)([C@H](O)CC=C(C)C)O2`, the MIC in assay [1] worked out at 4 µg/mL; in [2], 8 µg/mL; in [5], 8 µg/mL; in assay [7], 2 µg/mL; in assay [8], 4 µg/mL; in assay [11] it was 2 µg/mL. In addition, the MIC in assay [12] was 2 µg/mL; in assay [13], 16 µg/mL; in assay [15] it was 8 µg/mL; in [16] it was 4 µg/mL; in assay [17], 8 µg/mL.

`C=C1CC[C@@]2(O)C[C@@H]1[C@]2(C)[C@H](OC(C)=O)C(=O)C=C(C)C`: the MIC in assay [1] was 4 µg/mL; in [2], 8 µg/mL; in assay [5] it was 32 µg/mL; in assay [7], 2 µg/mL; in assay [8] it was 8 µg/mL; in assay [11], 16 µg/mL. The MIC is 16 µg/mL in assay [12]; 2 µg/mL in assay [13]; 1 µg/mL in [15]; 4 µg/mL in assay [16]; 4 µg/mL in assay [17].

For `C=C1CC[C@H](O)C[C@@H]1[C@@](C)(O)C(=O)/C=C/C(C)(C)O`, the MIC in [3] was 16 µg/mL; in [4], greater than 64 µg/mL; in [6], greater than 64 µg/mL; in assay [9] it was greater than 64 µg/mL; in assay [10], 64 µg/mL; in [14], greater than 64 µg/mL. For the same molecule, in [18], the MIC is greater than 64 µg/mL.

Take `O=C(N[C@H](CO)[C@H](O)c1ccc([N+](=O)[O-])cc1)C(Cl)Cl` [CHLORAMPHENICOL]: the minimum inhibitory concentration (MIC) amounted to 2 µg/mL in [3]; 0.5 µg/mL in [4]; 0.5 µg/mL in assay [6]; 0.5 µg/mL in [9]; 2 µg/mL in assay [10]; 2 µg/mL in assay [14]. Moreover, in assay [18], the MIC was 0.5 µg/mL.

On to `C=C1C(=O)C[C@@]2(C)C[C@@H]1[C@](C)([C@H](O)CC=C(C)C)O2`, for which the minimal inhibitory concentration (MIC) in assay [1] came to 4 µg/mL; in assay [2], 4 µg/mL; in assay [5] it was 4 µg/mL; in assay [7], 1 µg/mL; in [8], 8 µg/mL; in [11] it was 8 µg/mL. Also, the MIC in assay [12] was 4 µg/mL; in assay [13], 16 µg/mL; in assay [15], 8 µg/mL; in assay [16], 4 µg/mL; in [17] it was 4 µg/mL.

In the case of `C=C1CC[C@@]2(O)C[C@@H]1[C@]2(C)[C@@H](CC=C(C)C)OC(C)=O`, the MIC in assay [1] is 4 µg/mL; in assay [2], 8 µg/mL; in assay [3] it was 4 µg/mL; in [4], 16 µg/mL; in assay [5], 32 µg/mL; in assay [6], greater than 64 µg/mL. Further, the MIC in [7] was 2 µg/mL; in assay [8] it was 4 µg/mL; in assay [9], greater than 64 µg/mL; in [10], greater than 64 µg/mL; in assay [11], 16 µg/mL; in [12] it was 16 µg/mL. In addition, the MIC was 2 µg/mL in [13]; greater than 64 µg/mL in assay [14]; 1 µg/mL in [15]; 4 µg/mL in [16]; 8 µg/mL in assay [17]; 8 µg/mL in assay [18].

For `C[C@@H]1[C@H](O)[C@@H](C)/C=C/C=C/C=C/C=C/C=C/C=C/C=C/[C@H](O[C@@H]2O[C@H](C)[C@@H](O)[C@H](N)[C@@H]2O)C[C@@H]2O[C@](O)(C[C@@H](O)C[C@@H](O)[C@H](O)CC[C@@H](O)C[C@@H](O)CC(=O)O[C@H]1C)C[C@H](O)[C@H]2C(=O)O` [AMPHOTERICIN B], the MIC was 2 µg/mL in assay [1]; 4 µg/mL in assay [2]; 8 µg/mL in assay [5]; 2 µg/mL in assay [7]; 8 µg/mL in assay [8]; 8 µg/mL in assay [11]. For the same molecule, the MIC in assay [12] was 4 µg/mL; in [13] it was 1 µg/mL; in [15], 0.5 µg/mL; in assay [16], 0.5 µg/mL; in assay [17], 0.5 µg/mL.

`C=C1CC[C@H](O)C[C@@H]1[C@H](C)[C@H](O)C(=O)C=C(C)C`: the minimum inhibitory concentration (MIC) in assay [3] is greater than 64 µg/mL; in assay [4], greater than 64 µg/mL; in assay [6], greater than 64 µg/mL; in [9], 64 µg/mL; in [10], 2 µg/mL; in assay [14] it was greater than 64 µg/mL. Also, the MIC in assay [18] was greater than 64 µg/mL.

`C=C1CC[C@@]2(O)C[C@@H]1[C@]2(C)CC(=O)C=C(C)C`: the MIC in [1] was 8 µg/mL; in assay [2] it was 4 µg/mL; in assay [3], greater than 64 µg/mL; in assay [4] it was 16 µg/mL; in assay [5], 16 µg/mL; in assay [6], 16 µg/mL. Further, the MIC was 4 µg/mL in [7]; 4 µg/mL in [8]; greater than 64 µg/mL in [9]; 8 µg/mL in [10]; 8 µg/mL in assay [11]; 8 µg/mL in [12]. The MIC is 8 µg/mL in [13]; 32 µg/mL in assay [14]; 2 µg/mL in assay [15]; 4 µg/mL in [16]; 1 µg/mL in assay [17]; greater than 64 µg/mL in assay [18].
